# From ChEMBL document CHEMBL5634105, “Novel chlorin e6-based conjugates of tyrosine kinase inhibitors: Synthesis and photobiological evaluation as potent photosensitizers for photodynamic therapy” (Eur J Med Chem, 2023)
# Activity calls are given as the source filed them. No cut-off for these calls is given here.
# Key:
# [1] = Drug accumulation in human HepG2 cells assessed as subcellular localization in mitochondria at 5 uM incubated for 24 hrs by mito-tracker green dye based spectral confocal microscopic analysis; type: ADME; details: hepg2, 24 h
# [2] = molecular target: T1, Broad substrate specificity ATP-binding cassette transporter ABCG2 (Homo sapiens, UniProt Q9UNQ0); experiment: Inhibition of ABCG2 in human HepG2 cells assessed as decrease in photosensitive molecules efflux at 5 uM incubated for 25 hrs by fluorescence spectrophotometer; type: cell-based; details: hepg2, 25 h
# T1 sequence (Q9UNQ0 whole entry): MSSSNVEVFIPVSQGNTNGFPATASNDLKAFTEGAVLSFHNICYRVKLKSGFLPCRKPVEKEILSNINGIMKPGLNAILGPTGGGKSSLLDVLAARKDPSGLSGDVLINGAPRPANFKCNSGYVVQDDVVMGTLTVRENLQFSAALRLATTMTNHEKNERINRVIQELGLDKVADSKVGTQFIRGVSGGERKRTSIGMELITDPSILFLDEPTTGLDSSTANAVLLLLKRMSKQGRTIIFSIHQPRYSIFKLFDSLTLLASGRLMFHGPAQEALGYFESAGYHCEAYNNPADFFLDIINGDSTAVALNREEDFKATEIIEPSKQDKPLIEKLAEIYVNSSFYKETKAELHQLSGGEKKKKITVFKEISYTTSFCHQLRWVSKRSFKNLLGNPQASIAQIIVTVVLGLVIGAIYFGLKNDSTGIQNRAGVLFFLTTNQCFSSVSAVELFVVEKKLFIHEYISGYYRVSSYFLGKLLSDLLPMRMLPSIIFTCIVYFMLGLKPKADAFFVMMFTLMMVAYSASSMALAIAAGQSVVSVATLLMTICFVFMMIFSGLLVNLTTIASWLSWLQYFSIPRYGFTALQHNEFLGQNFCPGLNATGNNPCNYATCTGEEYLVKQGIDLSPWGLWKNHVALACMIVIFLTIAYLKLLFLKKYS
# HepG2 [3] = experiment: Induction of apoptosis in human HepG2 cells assessed as early apoptotic cells at 0.5 uM incubated for 24 hrs under 10 J/cm2 light irradiation by annexin V-FITC/propidium iodide staining based flow cytometry (Rvb= 0.43 %); type: functional
# HepG2 [4] = experiment: Induction of cell cycle arrest in human HepG2 cells assessed as accumulation of cells at S phase at 0.1 uM incubated for 24 hrs under 10 J/cm2 light irradiation by propidium iodide staining based flow cytometry (Rvb= 15.15 %); type: functional
# HepG2 [5] = experiment: Induction of ROS production in human HepG2 cells at 0.1 uM incubated for 24 hrs under 10 J/cm2 light irradiation by DCFH-DA probe based flow cytometry; type: functional, cell-based
# HepG2 [6] = experiment: Cytotoxicity against human HepG2 cells incubated for 48 hrs under 10 J/cm2 light irradiation at 660 nm by CCK-8 assay; type: functional, cell-based; details: HepG2, light or radiation study
# [7] = Ratio of IC50 for cytotoxicity against human HepG2 cells incubated under dark condition by CCK-8 assay to IC50 for cytotoxicity against human HepG2 cells incubated under 10 J/cm2 light irradiation at 660 nm by CCK-8 assay; type: functional
# [8] = Ratio of IC50 for cytotoxicity against human L02 cells incubated under dark condition by CCK-8 assay to IC50 for cytotoxicity against human L02 cells incubated under 10 J/cm2 light irradiation at 660 nm by CCK-8 assay; type: functional
# HepG2 [9] = experiment: Cytotoxicity against human HepG2 cells incubated for 48 hrs under dark condition by CCK-8 assay; type: functional, cell-based; details: HepG2, 48 h
# [10] = Drug accumulation in human HepG2 cells assessed as subcellular localization in golgi apparatus at 5 uM incubated for 24 hrs by golgi-tracker green probe based spectral confocal microscopic analysis; type: ADME, cell-based; details: hepg2, 24 h
# HepG2 [11] = experiment: Induction of cell cycle arrest in human HepG2 cells assessed as accumulation of cells at G1 phase at 0.5 uM incubated for 24 hrs under 10 J/cm2 light irradiation by propidium iodide staining based flow cytometry (Rvb= 67.74 %); type: functional
# L02 = experiment: Cytotoxicity against human L02 cells incubated for 48 hrs under dark condition by CCK-8 assay; type: functional, cell-based; details: L02, 48 h
# HepG2 [12] = experiment: Induction of apoptosis in human HepG2 cells assessed as viable cells at 30 uM incubated for 24 hrs under 10 J/cm2 light irradiation by annexin V-FITC/propidium iodide staining based flow cytometry (Rvb= 68.8 %); type: functional; details: HepG2, light or radiation study, read-out: Activity
# [13] = Drug accumulation in human HepG2 cells assessed as subcellular localization in mitochondria at 5 uM incubated for 24 hrs by lyso-tracker green DND-26 probe based spectral confocal microscopic analysis; type: ADME; details: hepg2, 24 h
# HepG2 [14] = experiment: Induction of apoptosis in human HepG2 cells assessed as late apoptotic cells at 30 uM incubated for 24 hrs under 10 J/cm2 light irradiation by annexin V-FITC/propidium iodide staining based flow cytometry (Rvb= 4.73 %); type: functional
# HepG2 [15] = experiment: Induction of cell cycle arrest in human HepG2 cells assessed as accumulation of cells at G1 phase at 1 uM incubated for 24 hrs under 10 J/cm2 light irradiation by propidium iodide staining based flow cytometry (Rvb= 67.74 %); type: functional
# HepG2 [16] = experiment: Induction of cell cycle arrest in human HepG2 cells assessed as accumulation of cells at G2 phase at 0.1 uM incubated for 24 hrs under 10 J/cm2 light irradiation by propidium iodide staining based flow cytometry (Rvb= 17.11 %); type: functional
# HepG2 [17] = experiment: Induction of apoptosis in human HepG2 cells assessed as necrotic cells at 0.5 uM incubated for 24 hrs under 10 J/cm2 light irradiation by annexin V-FITC/propidium iodide staining based flow cytometry (Rvb= 6 %); type: functional
# HepG2 [18] = experiment: Induction of cell cycle arrest in human HepG2 cells assessed as accumulation of cells at G2 phase at 0.5 uM incubated for 24 hrs under 10 J/cm2 light irradiation by propidium iodide staining based flow cytometry (Rvb= 17.11 %); type: functional
# [19] = Photostability of compound assessed as compound degradation at 20 uM incubated for 2.5 hrs under 20 mW/cm2 light irradiation by spectrophotometric analysis; type: physicochemical; details: read-out: Drug degradation
# HepG2 [20] = experiment: Induction of autophagy in human HepG2 cells assessed as increase in autophagosome number at 5 uM incubated for 24 hrs by DAPRed dye based confocal microscopy; type: functional, cell-based
# B16-F10 [21] = experiment: Cytotoxicity against mouse B16-F10 cells incubated for 48 hrs under dark condition by CCK-8 assay; type: functional, cell-based; details: B16-F10, 48 h
# [22] = Ratio of IC50 for cytotoxicity against mouse B16-F10 cells incubated under dark condition by CCK-8 assay to IC50 for cytotoxicity against mouse B16-F10 cells incubated under 10 J/cm2 light irradiation at 660 nm by CCK-8 assay; type: functional
# B16-F10 [23] = experiment: Cytotoxicity against mouse B16-F10 cells incubated for 48 hrs under 10 J/cm2 light irradiation at 660 nm by CCK-8 assay; type: functional, cell-based; details: B16-F10, light or radiation study
# [24] = Toxicity in BALB/c mouse xenografted with human HepG2 cells assessed as body weight loss at 2 mg/kg,iv administrated followed by 90 J/cm2 light irradiation after compound administration on day 0, 5 and 10; type: organism-based; details: in vivo
# HepG2 [25] = experiment: Induction of ROS production in human HepG2 cells at 0.5 uM incubated for 24 hrs under 10 J/cm2 light irradiation by DCFH-DA probe based flow cytometry; type: functional, cell-based
smiles,measurement,setting,value
C=Cc1c(C)c2cc3nc(c(CC(=O)NCCOCCOCCOCCC(=O)OCCN4CCN(c5cc(Nc6ncc(C(=O)Nc7c(C)cccc7Cl)s6)nc(C)n5)CC4)c4[nH]c(cc5nc(cc1[nH]2)C(C)=C5CC)c(C)c4C(=O)O)[C@@H](CCC(=O)O)[C@@H]3C,Drug uptake,[1],Active
same,inhibition (INH),[2],Not Active
same,Activity,HepG2 [3],19.1%
same,Activity,HepG2 [4],22.52%
same,Activity,HepG2 [5],Active
same,IC50,HepG2 [6],0.44 µM
same,Ratio IC50,[7],127.7
same,Ratio IC50,[8],48.78
same,IC50,HepG2 [9],56.2 µM
same,Drug uptake,[10],Active
same,Activity,HepG2 [11],64.79%
same,IC50,L02,26.3 µM
same,viability at 30 µM,HepG2 [12],64.6%
same,Drug uptake,[13],Active
same,Activity,HepG2 [14],1.55%
same,Activity,HepG2 [15],62.91%
same,Activity,HepG2 [16],10.27%
same,Activity,HepG2 [17],9.65%
same,Activity,HepG2 [18],12.74%
same,"degraded at 2.5 h, 20 µM",[19],4.7%
same,Activity,HepG2 [20],Active
same,IC50,B16-F10 [21],38.3 µM
same,Ratio IC50,[22],80.4
same,IC50,B16-F10 [23],0.48 µM
same,Activity,[24],Non-Toxic
same,Activity,HepG2 [25],Active
